Reference: paper PMC5097156, “Potent and selective chemical probe of hypoxic signalling downstream of HIF-α hydroxylation via VHL inhibition” (Nature Communications, 2016)

What was measured:
Experiment in all cases: biochemical
Set-up in all cases: Dundee MRC-PPU Express kinase screen, remaining kinase activity
Conditions in all cases: read-out: Mean % of remaining kinase activity (±sd)
[1] = target: BTK (Homo sapiens, UniProt Q06187)
[2] = target: CAMK1 (Homo sapiens, UniProt Q14012)
[3] = target: T1, CAMKKb (Homo sapiens, UniProt Q96RR4)
T1 construct: gene CAMKK2

[4] = target: T2, CHK2 (Homo sapiens, UniProt O96017)
T2 construct: gene CHEK2

[5] = target: T3, EF2K (Homo sapiens, UniProt O00418)
T3 construct: gene EEF2K

[6] = target: T4, HER4 (Homo sapiens, UniProt Q15303)
T4 construct: gene ERBB4

[7] = target: Lck (Homo sapiens, UniProt P06239)
[8] = target: T5, MSK1 (Homo sapiens, UniProt O75582)
T5 construct: gene RPS6KA5

[9] = target: T6, PKBa (Homo sapiens, UniProt P31749)
T6 construct: gene AKT1

[10] = target: RIPK2 (Homo sapiens, UniProt O43353)
[11] = target: SGK1 (Homo sapiens, UniProt O00141)
[12] = target: TBK1 (Homo sapiens, UniProt Q9UHD2)
[13] = target: T7, p38a MAPK (Homo sapiens, UniProt Q16539)
T7 construct: gene MAPK14
T7 sequence (Q16539 whole entry): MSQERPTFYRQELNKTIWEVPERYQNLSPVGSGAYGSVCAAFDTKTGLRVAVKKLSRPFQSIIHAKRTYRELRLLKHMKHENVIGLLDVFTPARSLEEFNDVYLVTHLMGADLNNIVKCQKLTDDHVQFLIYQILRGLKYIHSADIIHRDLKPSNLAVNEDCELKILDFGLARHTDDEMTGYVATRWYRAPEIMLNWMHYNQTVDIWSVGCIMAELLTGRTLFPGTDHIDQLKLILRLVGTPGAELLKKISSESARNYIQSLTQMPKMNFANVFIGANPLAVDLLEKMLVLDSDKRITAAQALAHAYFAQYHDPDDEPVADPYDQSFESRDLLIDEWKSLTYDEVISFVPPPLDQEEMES

Lck, sequence (P06239 whole entry): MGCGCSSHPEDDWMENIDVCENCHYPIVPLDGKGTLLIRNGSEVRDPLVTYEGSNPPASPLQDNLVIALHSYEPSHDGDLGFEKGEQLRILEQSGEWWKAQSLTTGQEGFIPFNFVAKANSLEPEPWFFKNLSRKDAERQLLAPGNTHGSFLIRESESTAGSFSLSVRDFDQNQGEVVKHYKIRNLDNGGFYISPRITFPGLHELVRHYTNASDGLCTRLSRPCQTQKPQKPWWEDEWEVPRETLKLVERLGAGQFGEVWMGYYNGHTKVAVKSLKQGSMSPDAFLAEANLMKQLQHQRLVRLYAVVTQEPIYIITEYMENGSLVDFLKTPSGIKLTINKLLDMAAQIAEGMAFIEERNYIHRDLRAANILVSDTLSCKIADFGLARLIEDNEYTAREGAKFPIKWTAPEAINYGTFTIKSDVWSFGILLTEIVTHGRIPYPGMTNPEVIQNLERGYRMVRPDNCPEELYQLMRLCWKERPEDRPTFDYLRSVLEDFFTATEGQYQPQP
T2 sequence (O96017 whole entry): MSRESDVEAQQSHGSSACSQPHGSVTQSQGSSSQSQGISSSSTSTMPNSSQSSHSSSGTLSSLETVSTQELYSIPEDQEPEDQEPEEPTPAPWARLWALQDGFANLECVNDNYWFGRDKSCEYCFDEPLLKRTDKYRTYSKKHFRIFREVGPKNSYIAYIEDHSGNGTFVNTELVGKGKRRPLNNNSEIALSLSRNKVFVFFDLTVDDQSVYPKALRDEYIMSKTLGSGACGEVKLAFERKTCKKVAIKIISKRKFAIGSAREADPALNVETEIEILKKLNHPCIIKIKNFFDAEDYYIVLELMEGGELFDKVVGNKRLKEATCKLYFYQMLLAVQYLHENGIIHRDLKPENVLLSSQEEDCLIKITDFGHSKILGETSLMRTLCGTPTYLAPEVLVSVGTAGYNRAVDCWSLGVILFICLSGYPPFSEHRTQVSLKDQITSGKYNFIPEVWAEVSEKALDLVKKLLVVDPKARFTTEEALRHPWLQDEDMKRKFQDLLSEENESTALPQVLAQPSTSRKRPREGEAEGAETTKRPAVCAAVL
T5 sequence (O75582 whole entry): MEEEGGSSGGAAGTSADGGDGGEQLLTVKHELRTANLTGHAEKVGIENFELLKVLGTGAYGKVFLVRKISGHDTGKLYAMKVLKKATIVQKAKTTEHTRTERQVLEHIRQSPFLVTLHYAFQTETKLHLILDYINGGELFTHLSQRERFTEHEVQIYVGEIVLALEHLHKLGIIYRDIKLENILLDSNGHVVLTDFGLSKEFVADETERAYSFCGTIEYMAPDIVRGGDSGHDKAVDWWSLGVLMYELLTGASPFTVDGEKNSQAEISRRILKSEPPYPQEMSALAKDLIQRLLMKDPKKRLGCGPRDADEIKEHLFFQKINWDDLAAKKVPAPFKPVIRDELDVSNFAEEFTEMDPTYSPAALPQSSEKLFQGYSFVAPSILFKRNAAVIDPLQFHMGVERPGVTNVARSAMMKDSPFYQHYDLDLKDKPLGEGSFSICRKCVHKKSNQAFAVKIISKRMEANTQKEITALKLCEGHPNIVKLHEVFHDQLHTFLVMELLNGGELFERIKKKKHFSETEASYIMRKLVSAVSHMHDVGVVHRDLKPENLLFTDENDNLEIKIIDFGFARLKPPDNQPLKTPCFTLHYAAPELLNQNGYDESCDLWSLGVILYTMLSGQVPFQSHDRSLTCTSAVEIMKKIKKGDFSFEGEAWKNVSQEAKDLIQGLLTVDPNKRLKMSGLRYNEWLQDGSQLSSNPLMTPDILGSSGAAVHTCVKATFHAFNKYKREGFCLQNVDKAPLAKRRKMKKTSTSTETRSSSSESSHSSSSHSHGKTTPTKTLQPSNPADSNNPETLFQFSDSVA
RIPK2, sequence (O43353 whole entry): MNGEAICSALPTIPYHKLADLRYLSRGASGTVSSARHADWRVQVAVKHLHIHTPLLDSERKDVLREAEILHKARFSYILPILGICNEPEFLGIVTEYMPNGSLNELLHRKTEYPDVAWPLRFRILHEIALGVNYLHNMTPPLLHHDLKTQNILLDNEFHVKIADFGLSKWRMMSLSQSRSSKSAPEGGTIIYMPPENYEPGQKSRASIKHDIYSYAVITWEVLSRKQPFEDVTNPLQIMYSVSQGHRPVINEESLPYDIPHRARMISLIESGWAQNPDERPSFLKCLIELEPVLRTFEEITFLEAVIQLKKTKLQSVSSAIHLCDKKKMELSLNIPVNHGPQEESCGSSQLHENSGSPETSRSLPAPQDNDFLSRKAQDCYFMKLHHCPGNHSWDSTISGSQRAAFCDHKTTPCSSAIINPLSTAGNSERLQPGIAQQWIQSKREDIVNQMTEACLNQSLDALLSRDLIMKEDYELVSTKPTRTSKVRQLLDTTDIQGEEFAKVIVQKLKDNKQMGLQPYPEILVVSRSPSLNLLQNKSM
SGK1, sequence (O00141 whole entry): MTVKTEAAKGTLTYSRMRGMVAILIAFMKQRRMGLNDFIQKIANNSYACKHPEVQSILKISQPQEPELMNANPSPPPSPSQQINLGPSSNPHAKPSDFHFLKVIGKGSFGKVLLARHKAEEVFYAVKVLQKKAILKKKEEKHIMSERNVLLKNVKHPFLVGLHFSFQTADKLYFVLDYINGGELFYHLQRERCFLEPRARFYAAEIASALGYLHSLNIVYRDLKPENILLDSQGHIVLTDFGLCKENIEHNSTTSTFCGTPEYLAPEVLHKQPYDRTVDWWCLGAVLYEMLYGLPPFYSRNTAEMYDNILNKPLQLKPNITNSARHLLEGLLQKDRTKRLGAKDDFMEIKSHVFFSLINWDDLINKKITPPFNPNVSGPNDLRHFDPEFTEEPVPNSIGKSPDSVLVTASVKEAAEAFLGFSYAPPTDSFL
T1 sequence (Q96RR4 whole entry): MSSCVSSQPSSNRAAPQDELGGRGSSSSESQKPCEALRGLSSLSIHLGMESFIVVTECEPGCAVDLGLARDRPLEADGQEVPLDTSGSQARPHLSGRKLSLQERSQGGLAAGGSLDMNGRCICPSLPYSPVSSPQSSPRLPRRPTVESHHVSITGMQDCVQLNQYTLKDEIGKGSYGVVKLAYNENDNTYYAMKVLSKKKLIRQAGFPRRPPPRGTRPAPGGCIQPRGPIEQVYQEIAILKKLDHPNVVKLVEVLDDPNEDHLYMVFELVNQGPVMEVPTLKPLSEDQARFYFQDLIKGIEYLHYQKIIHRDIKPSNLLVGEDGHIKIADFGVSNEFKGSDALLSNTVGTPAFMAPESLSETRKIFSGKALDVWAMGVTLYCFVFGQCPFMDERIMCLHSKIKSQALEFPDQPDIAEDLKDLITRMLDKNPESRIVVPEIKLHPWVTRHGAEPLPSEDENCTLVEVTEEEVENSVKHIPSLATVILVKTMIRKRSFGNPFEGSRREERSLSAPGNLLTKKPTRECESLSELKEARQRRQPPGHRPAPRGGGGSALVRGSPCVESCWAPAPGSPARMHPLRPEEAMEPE
TBK1, sequence (Q9UHD2 whole entry): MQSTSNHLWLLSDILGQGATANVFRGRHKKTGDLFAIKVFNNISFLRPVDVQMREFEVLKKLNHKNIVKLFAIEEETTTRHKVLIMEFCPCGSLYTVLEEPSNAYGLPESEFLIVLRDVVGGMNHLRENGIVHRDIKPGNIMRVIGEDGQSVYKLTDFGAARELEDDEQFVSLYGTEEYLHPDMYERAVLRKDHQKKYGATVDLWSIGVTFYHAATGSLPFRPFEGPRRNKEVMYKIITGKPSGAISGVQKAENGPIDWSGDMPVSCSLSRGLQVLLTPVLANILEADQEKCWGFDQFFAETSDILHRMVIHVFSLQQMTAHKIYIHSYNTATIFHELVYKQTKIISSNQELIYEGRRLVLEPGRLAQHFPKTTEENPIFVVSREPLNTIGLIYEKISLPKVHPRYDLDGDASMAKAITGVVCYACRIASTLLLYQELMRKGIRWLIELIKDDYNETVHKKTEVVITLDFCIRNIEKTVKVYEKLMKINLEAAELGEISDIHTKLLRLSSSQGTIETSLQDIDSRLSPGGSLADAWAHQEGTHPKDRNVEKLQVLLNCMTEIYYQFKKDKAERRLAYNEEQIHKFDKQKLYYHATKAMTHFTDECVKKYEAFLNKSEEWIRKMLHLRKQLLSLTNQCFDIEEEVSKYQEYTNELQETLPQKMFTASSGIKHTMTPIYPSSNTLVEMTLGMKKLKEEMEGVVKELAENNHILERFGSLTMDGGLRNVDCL
CAMK1, sequence (Q14012 whole entry): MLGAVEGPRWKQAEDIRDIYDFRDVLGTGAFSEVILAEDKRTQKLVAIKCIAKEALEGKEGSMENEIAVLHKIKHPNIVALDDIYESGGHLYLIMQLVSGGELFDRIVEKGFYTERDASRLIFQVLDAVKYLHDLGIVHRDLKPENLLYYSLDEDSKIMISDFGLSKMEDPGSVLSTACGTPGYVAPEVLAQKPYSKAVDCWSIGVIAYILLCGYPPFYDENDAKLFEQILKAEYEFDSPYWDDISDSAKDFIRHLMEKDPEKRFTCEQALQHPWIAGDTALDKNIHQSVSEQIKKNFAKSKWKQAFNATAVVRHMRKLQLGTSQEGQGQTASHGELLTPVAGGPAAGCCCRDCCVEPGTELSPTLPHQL

Cc1ncsc1-c1ccc(CNC(=O)[C@@H]2C[C@@H](O)CN2C(=O)[C@@H](NC(=O)C2(C#N)CC2)C(C)(C)C)cc1 [VH298]
remaining activity at 50 µM [1]: 102% | remaining activity at 50 µM [2]: 81% | remaining activity at 50 µM [3]: 101% | remaining activity at 50 µM [4]: 93% | remaining activity at 50 µM [5]: 116% | remaining activity at 50 µM [6]: 96% | remaining activity at 50 µM [7]: 104% | remaining activity at 50 µM [8]: 87% | remaining activity at 50 µM [9]: 54% | remaining activity at 50 µM [10]: 112% | remaining activity at 50 µM [11]: 83% | remaining activity at 50 µM [12]: 110% | remaining activity at 50 µM [13]: 108%
